The values that follow come from US4843077A, “Isoquinoline derivatives having renal vasodilating properties and/or cardiotonic properties and/or phosphodiesterase inhibiting properties” (Ortho Pharmaceutical Corporation, priority 1987, dated 1989).

Like-named read-outs stand apart in the source and are kept apart here.

The target of assay [1] is phosphodiesterase fraction III. In words: Inhibition of phosphodiesterase fraction III activity. It counts as biochemical. Particulars: cyclic AMP substrate 0.01-1.0 micromolar, pH 7.4, fraction III enzyme from canine heart.
Another assay relates to renal vasculature. Nature of the assay: Renal vasodilating activity in anesthetized dogs. Particulars: Canis lupus familiaris. The format is in vivo, adult mongrel dogs. How it is done: The following procedure is a variation of the assay described in that report.
Adult mongrel dogs were anesthetized and surgically prepared for electromagnetic measurement of renal artery blood flow. A carotid artery was cannulated for measuring arterial blood pressure and drugs were administered intravenously or intraarterially (via the renal artery). Heart rate was monitored with a cardiotachometer. Renal vascular resistance was calcualted as the ratio of mean arterial blood pressure to renal artery blood flow. Dopamine was infused intravenously at 3 μg/kg/min for ten minutes (at an infusion rate of about 1 ml/min) to determine responsiveness of each dog to renal dopamine receptor stimulation. Cumulative dose-response data were obtained by infusing a compound of this invention at progressively increasing (usually three-fold) infusion rates, each dose being infused for five minutes. The maximum percent change from pre-drug control in renal artery blood flow (or in renal vascular resistance) was determined for each infusion dose.

The subject of a further assay is cardiac muscle. Nature of the assay: Acute in vivo cardiotonic activity in anesthetized dogs. Also noted: species or system adult mongrel dogs. As to conditions: anesthetized dog, relative to control. How it is done: The acute in vivo cardiotonic activity of compounds prepared according to the present invention was determined according to a modification of the procedure described by Alousi et al., Circ. Res., 45, 666 (1979).
In particular, adult mongrel dogs were anesthetized with sodium pentobarbital and were artificially respired. Arterial pressure was monitored via a femoral artery, and the pulse pressure was used to trigger a cardiotachometer for heart rate. Left ventricular pressure was determined with a Millar catheter, and dP/dT (the change in ventricular pressure with time) was derived. Cardiac output was determined by measuring ascending aortic blood flow with an electromagnetic flow probe, and myocardial contractile foorce was measured with a Walton Brodie strain gauge sutured to the right ventricle. Lead II EKG was also recorded.
A standard dose (10 μg/kg/min) of dopamine was administered to assess myocardial responsiveness.
Compounds of the invention were administered by intravenous infusion and the effects on cardiovascular parameters were determined.
Dose related effects of the test compound on heart rate (HR), maximum change in left ventricular pressure with time (dP/dT), percent change in cardiac force (CF) and the change in mean arterial blood pressure (MABP) were compared to pretreatment control values and expressed as a percent change.

[2] abbreviates: iv, read-out: RVR, percent change in renal vascular resistance.
[3] abbreviates: anesthetized dog, dose 6.2 mpk iv, relative to control, read-out: HR, percent change in heart rate.
Where [4] appears, read: anesthetized dog, dose 6.2 mpk iv, relative to control, read-out: MABP, percent change in mean arterial blood pressure.
Setting [5] is: anesthetized dog, dose 6.2 mpk iv, relative to control, read-out: RBF, percent change in renal blood flow.
The mark [6] stands for this setting: total dose 1.875 mpk iv infusion.
Where [7] appears, read: iv, read-out: HR, percent change in heart rate.
Where [8] appears, read: anesthetized dog, dose 1.2 mpk iv, relative to control, read-out: HR, percent change in heart rate.
Setting [9] is: anesthetized dog, dose 1.2 mpk iv, relative to control, read-out: MABP, percent change in mean arterial blood pressure.
Where [10] appears, read: anesthetized dog, dose 1.2 mpk iv, relative to control, read-out: RBF, percent change in renal blood flow.
Where [11] appears, read: anesthetized dog, dose 1.2 mpk iv, relative to control, read-out: RVR, percent change in renal vascular resistance.
Setting [12] is: total dose 1.938 mpk iv infusion.

One may read the IC50 as the concentration needed to halve the response being measured. On to `CNc1nc(C)c2cc(OC)c(OC)cc2c1[N+](=O)[O-]` [Cmpd 2], for which, in assay [1], the IC50 came out at 265 µM.
Same read-out and setting: then `CCCCNc1nc(C)c2cc(OC)c(OC)cc2c1[N+](=O)[O-]` [Cmpd 3, 3-(n-Butylamino)-6,7-dimethoxy-1-methyl-4-nitroisoquinoline], with 250 µM.
Consider `COc1cc2c(C)nc(NCc3ccccc3)c([N+](=O)[O-])c2cc1OC` [Cmpd 4], for which the change in vivo at 6.2 mg/kg in the assay with renal vasculature (setting [2]) was -14%; with renal vasculature (setting [3]), -15%; in the assay on renal vasculature (setting [4]) it was -6%; in the assay with renal vasculature (setting [5]), 9%.
Consider `CCN(CC)CCNc1nc(C)c2cc(OC)c(OC)cc2c1[N+](=O)[O-]` [Cmpd 6], for which, in the assay with cardiac muscle (setting [6]), the “CF, percent change in cardiac force” value is on record as 40 percent change; the “HR, percent change in heart rate” value is recorded as -6 percent change; the “MABP, percent change in mean arterial blood pressure” value (“MABP, percent change” for short) stood at 4 percent change; the “dP/dt, maximum percent change in left ventricular pressure with time” value (“dP/dt, maximum percent change” for short) amounted to 52 percent change.
Regarding `COc1cc2c(C)nc(NCCN3CCN(c4ccccc4OC)CC3)c([N+](=O)[O-])c2cc1OC` [Cmpd 8], the change in vivo at 0.3 mg/kg was -6% in the assay on renal vasculature (setting [7]); -20% in the assay with renal vasculature (anesthetized dog, dose 0.3 mpk iv, relative to control, read-out: MABP, percent change in mean arterial blood pressure); 10% in the assay with renal vasculature (anesthetized dog, dose 0.3 mpk iv, relative to control, read-out: RBF, percent change in renal blood flow); -27% with renal vasculature (anesthetized dog, dose 0.3 mpk iv, relative to control, read-out: RVR, percent change in renal vascular resistance).
The compound `COc1cc2c(C)nc(NC3CCN(Cc4ccccc4)CC3)c([N+](=O)[O-])c2cc1OC` [Cmpd 11] came in with an IC50 in assay [1] of 120 µM. Moreover, the change in vivo at 6.2 mg/kg is -28% in the assay with renal vasculature (setting [2]), -16% in the assay with renal vasculature (setting [3]), -13% in the assay with renal vasculature (setting [4]) and 28% in the assay with renal vasculature (setting [5]).
Taken in the same sequence, the figures for `COc1cc2c(C)nc(Nc3ccccc3)c([N+](=O)[O-])c2cc1OC` [Cmpd 12] were 250 µM, -32%, 2%, -3% and 42%.
Consider `COc1cc2c(C)nc(N(C)C)c([N+](=O)[O-])c2cc1OC` [Cmpd 13, 6,7-Dimethoxy-1-methyl-3-(N,N-dimethyl)amino-4-nitroisoquinoline], for which the IC50 in assay [1] was 10 µM. The change in vivo at 1.2 mg/kg in the assay with renal vasculature (setting [8]) is 17%; in the assay with renal vasculature (setting [9]) it was 16%; in the assay on renal vasculature (setting [10]) it was 60%; in the assay on renal vasculature (setting [11]), -23%.
As for `CCN(C)c1nc(C)c2cc(OC)c(OC)cc2c1[N+](=O)[O-]` [Cmpd 14], in assay [1], the IC50 came out at 25 µM. Further, in the assay with cardiac muscle (setting [12]), the “CF, percent change in cardiac force” value worked out at 21 percent change; the “HR, percent change in heart rate” value is given as 8 percent change; the “MABP, percent change” value was 6 percent change; the “dP/dt, maximum percent change” value amounted to 20 percent change.
Take `CCN(CC)c1nc(C)c2cc(OC)c(OC)cc2c1[N+](=O)[O-]` [Cmpd 15]: the change in vivo at 6.2 mg/kg in the assay with renal vasculature (setting [3]) was 4%; in the assay on renal vasculature (setting [4]), 0%; with renal vasculature (setting [5]), 8%; in the assay on renal vasculature (anesthetized dog, dose 6.2 mpk iv, relative to control, read-out: RVR, percent change in renal vascular resistance), -8%.
For `CCN(CCN(C)C)c1nc(C)c2cc(OC)c(OC)cc2c1[N+](=O)[O-]` [Cmpd 16], the IC50 in assay [1] was found to be 300 µM.
With `COc1cc2c(C)nc(N3CCN(c4ccccc4)CC3)c([N+](=O)[O-])c2cc1OC` [Cmpd 19], half-maximal inhibition in assay [1] (IC50) required 150 µM. Also, the change in vivo at 6.2 mg/kg with renal vasculature (setting [2]) is -18%; with renal vasculature (setting [3]) it was -5%; with renal vasculature (setting [4]), 6%; with renal vasculature (setting [5]) it was 30%.
For `COc1cc2c(C)nc(N(C)c3ccccc3)c([N+](=O)[O-])c2cc1OC` [Cmpd 21], the half-inhibitory concentration (IC50) in assay [1] came to 220 µM.
In turn, `CCCCSc1nc(C)c2cc(OC)c(OC)cc2c1[N+](=O)[O-]` [Cmpd 23, 3-(n-Butylthio)-6,7-dimethoxy-1-methyl-4-nitroisoquinoline] registered an IC50 in assay [1] of 280 µM. In addition, the change in vivo at 6.2 mg/kg was -1% with renal vasculature (iv, read-out: MABP, percent change in mean arterial blood pressure); -15% in the assay with renal vasculature (setting [2]); 4% in the assay on renal vasculature (setting [3]); 16% in the assay with renal vasculature (setting [5]).
Take `COc1cc2c(C)nc(Nc3ccccc3)c(N)c2cc1OC` [Cmpd 25, 4-amino-6,7-dimethoxy-1-methyl-3-[(N-phenyl)amino]isoquinoline]: in assay [1], the IC50 worked out at 68 µM.
Same read-out and setting: as for `COc1cc2c(C)nc(N(C)C)c(N)c2cc1OC` [Cmpd 26, 4-Amino-6,7-dimethoxy-3-(N,N-dimethyl)amino-1-methylisoquinoline], the figure is 14 µM.
As to `CCCCNC(=O)Nc1c(Nc2ccccc2)nc(C)c2cc(OC)c(OC)cc12` [Cmpd 27], the change in vivo at 1.2 mg/kg in the assay on renal vasculature (setting [7]) is -6%; with renal vasculature (setting [9]) it was 8%; with renal vasculature (setting [10]), 7%; with renal vasculature (setting [11]), 1%.
In turn, `CCCCNC(=O)Nc1c(N(C)C)nc(C)c2cc(OC)c(OC)cc12` [Cmpd 28] came in with an IC50 in assay [1] of 300 µM. Further, in the assay on cardiac muscle (setting [6]), the “CF, percent change in cardiac force” value was determined as 20 percent change; the “HR, percent change in heart rate” value was found to be 2 percent change; the “MABP, percent change” value was 2 percent change; the “dP/dt, maximum percent change” value came to 16 percent change.
In assay [1], `C=CCNC(=O)Nc1c(N(C)C)nc(C)c2cc(OC)c(OC)cc12` [Cmpd 30] registered an IC50 of 280 µM. The change in vivo at 1.2 mg/kg is -9% with renal vasculature (setting [2]), 3% in the assay with renal vasculature (setting [8]), 1% in the assay with renal vasculature (setting [9]) and 12% with renal vasculature (setting [10]).
